Data published in US20080021026A1, “BENZOTHIOPHENE INHIBITORS OF RHO KINASE” (priority 2006, published 2008).
pIC50: −log10 of the molar value.

Tests used:
[1] = biological target: T1, recombinant N-terminal GST-tagged human Rho kinase 1 (ROCK1, amino acids 1-535) (Homo sapiens, UniProt Q13464); assay: In vitro Rho kinase assay (luciferase-based ATP consumption), ROCK1; format: biochemical; conditions: recombinant GST-tagged human ROCK1, luciferase-based ATP consumption; read-out: ROCK1 IC50
T1 construct: ROCK1, amino acids 1-535; purchased Invitrogen Inc. PV-3691
T1 sequence (Q13464 1-535): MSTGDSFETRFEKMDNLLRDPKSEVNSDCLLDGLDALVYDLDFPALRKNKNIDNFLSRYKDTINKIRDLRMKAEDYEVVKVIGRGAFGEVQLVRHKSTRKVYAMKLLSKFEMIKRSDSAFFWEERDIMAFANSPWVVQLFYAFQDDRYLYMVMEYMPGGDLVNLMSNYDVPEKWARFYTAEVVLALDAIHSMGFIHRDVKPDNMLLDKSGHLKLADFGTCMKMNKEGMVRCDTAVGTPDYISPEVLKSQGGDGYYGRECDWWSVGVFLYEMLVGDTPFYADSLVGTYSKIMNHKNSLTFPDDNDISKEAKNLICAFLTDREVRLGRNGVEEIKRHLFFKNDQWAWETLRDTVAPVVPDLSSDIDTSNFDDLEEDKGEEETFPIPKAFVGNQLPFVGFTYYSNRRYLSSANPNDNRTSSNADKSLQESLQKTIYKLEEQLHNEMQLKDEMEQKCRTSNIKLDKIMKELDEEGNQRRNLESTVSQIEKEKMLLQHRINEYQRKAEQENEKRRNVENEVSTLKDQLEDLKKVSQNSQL
Summary of the method: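 GST-ROCK1 (aa 1-535) at 0.82 μg/ml with 100 μg/ml S6 peptide and 3 µM ATP in Tris pH 7.5 buffer with MgCl2, CaCl2, EGTA, BSA; compound added after reaction start, 2 h at 30 °C. Remaining ATP read by luciferase luminescence; efficacy as percent of H-1152P positive control.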

[2] = biological target: T2, recombinant N-terminal GST-tagged human Rho kinase 2 (ROCK2, amino acids 1-552) (Homo sapiens, UniProt O75116); assay: In vitro Rho kinase assay (luciferase-based ATP consumption), ROCK2; format: biochemical; conditions: recombinant GST-tagged human ROCK2, luciferase-based ATP consumption; read-out: ROCK2 IC50
T2 construct: ROCK2, amino acids 1-552; purchased Invitrogen Inc. PV3759
T2 sequence (O75116 1-552): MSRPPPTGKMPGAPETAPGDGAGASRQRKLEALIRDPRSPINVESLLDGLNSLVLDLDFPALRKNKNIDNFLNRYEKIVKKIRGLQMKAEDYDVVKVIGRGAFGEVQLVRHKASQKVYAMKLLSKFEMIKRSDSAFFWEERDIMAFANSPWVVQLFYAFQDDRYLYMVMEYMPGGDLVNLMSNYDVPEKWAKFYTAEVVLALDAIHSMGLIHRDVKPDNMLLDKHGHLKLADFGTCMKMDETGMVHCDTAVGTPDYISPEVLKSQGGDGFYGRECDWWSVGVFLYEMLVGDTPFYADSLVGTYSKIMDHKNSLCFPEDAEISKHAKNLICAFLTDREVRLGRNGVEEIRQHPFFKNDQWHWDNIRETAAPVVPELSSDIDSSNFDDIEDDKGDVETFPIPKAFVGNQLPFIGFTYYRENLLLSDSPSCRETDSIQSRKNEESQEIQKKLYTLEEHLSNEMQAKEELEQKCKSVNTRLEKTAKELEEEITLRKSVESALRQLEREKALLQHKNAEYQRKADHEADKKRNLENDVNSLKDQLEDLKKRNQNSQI
Summary of the method: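 GST-ROCK2 (aa 1-552, 0.82 μg/ml) with 100 μg/ml S6 peptide and 3 µM ATP in Tris pH 7.5 buffer with MgCl2/CaCl2/EGTA/BSA, compound added just after reaction start, 2 h at 30 °C. Remaining ATP read by luciferase luminescence. Efficacy expressed as percentage of H-1152P positive control.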

pIC50 [1]	pIC50 [2]	SMILES
< 5.30	> 5.30	Cc1c(-c2ccnc(N)n2)sc2ccc(CNC(=O)c3ccccc3Cc3ccccc3)cc12 [Example 281, Cc1c(sc2ccc(CNC(═O)c3ccccc3Cc4ccccc4)cc12)-c5ccnc(N)n5]
> 5.30	> 5.30	Cc1c(-c2ccnc(N)n2)sc2ccc(CNC(=O)Cc3c(F)cccc3F)cc12 [Example 188, Cc1c(sc2ccc(CNC(═O)Cc3c(F)cccc3F)cc12)-c4ccnc(N)n4]
> 5.30	> 5.30	CC(=O)Oc1cccc(C(=O)NCc2ccc3sc(-c4ccnc(N)n4)c(C)c3c2)c1 [Example 210, CC(═O)Oc1cccc(c1)C(═O)NCc2ccc3sc(c(C)c3c2)-c4ccnc(N)n4]
> 5.30	> 5.30	Cc1c(-c2ccnc(N)n2)sc2ccc(CNC(=O)c3ccc(F)c([N+](=O)[O-])c3)cc12 [Example 231, Cc1c(sc2ccc(CNC(═O)c3ccc(F)c(c3)[N+]([O−])═O)cc12)-c4ccnc(N)n4]
> 5.30	> 5.30	Cc1c(-c2ccnc(N)n2)sc2ccc(CNC(=O)c3cc4ccccc4s3)cc12 [Example 202, Cc1c(sc2ccc(CNC(═O)c3cc4ccccc4s3)cc12)-c5ccnc(N)n5]
< 5.30	> 5.30	Cc1c(-c2ccnc(N)n2)sc2ccc(CNC(=O)c3ccc(Br)cc3)cc12 [Example 263, Cc1c(sc2ccc(CNC(═O)c3ccc(Br)cc3)cc12)-c4ccnc(N)n4]
< 5.30	> 5.30	Cc1cc(C)c(C(=O)NCc2ccc3sc(-c4ccnc(N)n4)c(C)c3c2)c(C)c1 [Example 170, Cc1cc(C)c(c(C)c1)C(═O)NCc2ccc3sc(c(C)c3c2)-c4ccnc(N)n4]
> 5.30	< 5.30	Cc1c(-c2ccnc(N)n2)sc2ccc(CNC(=O)C3CCCN3C(=O)OC(C)(C)C)cc12 (stereo not shown) [Example 289, Cc1c(sc2ccc(CNC(═O)[C]3CCCN3C(═O)OC(C)(C)C)cc12)-c4ccnc(N)n4]
> 5.30	< 5.30	COc1ccc2cc(C(C)C(=O)NCc3ccc4sc(-c5ccnc(N)n5)c(C)c4c3)ccc2c1 (stereo not shown) [Example 307, COc1ccc2cc(ccc2c1)[C](C)C(═O)NCc3ccc4sc(c(C)c4c3)-c5ccnc(N)n5]
< 5.30	> 5.30	Cc1c(-c2ccnc(N)n2)sc2ccc(CNC(=O)c3cncc(Br)c3)cc12 [Example 271, Cc1c(sc2ccc(CNC(═O)c3cncc(Br)c3)cc12)-c4ccnc(N)n4]
< 5.30	> 5.30	Cc1cccc(C(=O)NCc2ccc3sc(-c4ccnc(N)n4)c(C)c3c2)c1[N+](=O)[O-] [Example 216, Cc1cccc(C(═O)NCc2ccc3sc(c(C)c3c2)-c4ccnc(N)n4)c1[N+]([O−])═O]
< 5.30	> 5.30	CC(=O)c1cccc(C(=O)NCc2ccc3sc(-c4ccnc(N)n4)c(C)c3c2)c1 [Example 164, CC(═O)c1cccc(c1)C(═O)NCc2ccc3sc(c(C)c3c2)-c4ccnc(N)n4]
< 5.30	< 5.30	Cc1c(-c2ccnc(N)n2)sc2ccc(CNC(=O)C(C)c3cccc(C(=O)c4ccccc4)c3)cc12 (stereo not shown) [Example 324, CC(C(═O)NCc1ccc2sc(c(C)c2c1)-c3ccnc(N)n3)c4cccc(c4)C(═O)c5ccccc5]
< 5.30	> 5.30	Cc1c(-c2ccnc(N)n2)sc2ccc(CNC(=O)c3ccc([N+](=O)[O-])c(O)c3)cc12 [Example 226, Cc1c(sc2ccc(CNC(═O)c3ccc(c(O)c3)[N+]([O−])═O)cc12)-c4ccnc(N)n4]
< 5.30	> 5.30	COc1ccc(O)c(C(=O)NCc2ccc3sc(-c4ccnc(N)n4)c(C)c3c2)c1 [Example 182, COc1ccc(O)c(c1)C(═O)NCc2ccc3sc(c(C)c3c2)-c4ccnc(N)n4]
< 5.30	> 5.30	Cc1c(-c2ccnc(N)n2)sc2ccc(CNC(=O)c3cccc(O)c3O)cc12 [Example 143, Cc1c(sc2ccc(CNC(═O)c3cccc(O)c3O)cc12)-c4ccnc(N)n4]

The remaining lines, values behind:

SMILES	pIC50 [1]	pIC50 [2]
Nc1nccc(-c2sc3ccc(Cl)cc3c2-c2ccccc2)n1 [Example 17, 4-(5-Chloro-3-phenylbenzo[b]thiophen-2-yl)pyrimidin-2-amine]	< 5.30	< 5.30
Cc1cccc(C(=O)NCc2ccc3sc(-c4ccnc(N)n4)c(C)c3c2)c1C [Example 133, Cc1cccc(c1C)C(═O)NCc2ccc3sc(c(C)c3c2)-c4ccnc(N)n4]	> 5.30	> 5.30
Cc1c(-c2ccnc(N)n2)sc2ccc(Cc3cccc(C(=O)N4CCN(C)CC4)c3)cc12 [Example 50, (3-((2-(2-Aminopyrimidin-4-yl)-3-methylbenzo[b]thiophen-5-yl)methyl)phenyl)(4-methylpiperazin-1-yl)methanone]	> 5.30	> 5.30
Cc1c(-c2ccnc(N)n2)sc2ccc(Sc3cccc(C(=O)O)c3)cc12 [Example 86, 3-(2-(2-Aminopyrimidin-4-yl)-3-methylbenzo[b]thiophen-5-ylthio)benzoic acid]	> 5.30	> 5.30
Cc1c(-c2ccnc(N)n2)sc2ccc(CNC(=O)c3cn(C)cn3)cc12 [Example 114, Cc1c(sc2ccc(CNC(═O)c3cn(C)cn3)cc12)-c4ccnc(N)n4]	< 5.30	> 5.30
Cc1c(-c2ccnc(N)n2)sc2ccc(CNC(=O)c3cccc(C#N)c3)cc12 [Example 127, Cc1c(sc2ccc(CNC(═O)c3cccc(c3)C#N)cc12)-c4ccnc(N)n4]	> 5.30	> 5.30
Cc1cc(C)cc(C(=O)NCc2ccc3sc(-c4ccnc(N)n4)c(C)c3c2)c1 [Example 135, Cc1cc(C)cc(c1)C(═O)NCc2ccc3sc(c(C)c3c2)-c4ccnc(N)n4]	< 5.30	< 5.30
Cc1c(-c2c[nH]c3ncccc23)sc2ccc(Cl)cc12 [Example 5, 3-(5-Chloro-3-methylbenzo[b]thiophen-2-yl)-1H-pyrrolo[2,3-b]pyridine]	< 5.30	< 5.30
COc1cccc(C(N)c2ccc3sc(-c4ccnc(N)n4)c(C)c3c2)c1 (stereo not shown) [Example 32, 4-(5-(Amino(3-methoxyphenyl)methyl)-3-methylbenzo[b]thiophen-2-yl)pyrimidin-2-amine]	> 5.30	> 5.30
Cc1ccc(C(=O)NCc2ccc3sc(-c4ccnc(N)n4)c(C)c3c2)cc1C [Example 136, Cc1ccc(cc1C)C(═O)NCc2ccc3sc(c(C)c3c2)-c4ccnc(N)n4]	< 5.30	< 5.30
Cc1c(-c2ccnc(N)n2)sc2ccc(Cc3cccc(C(=O)NCCCN4CCOCC4)c3)cc12 [Example 49, 3-((2-(2-Aminopyrimidin-4-yl)-3-methylbenzo[b]thiophen-5-yl)methyl)-N-(3-morpholinopropyl)benzamide]	> 5.30	> 5.30
Cc1c(-c2ccnc(N)n2)sc2ccc(Nc3cccc(OC(F)(F)F)c3)cc12 [Example 54, 4-(3-Methyl-5-(3-(trifluoromethoxy)phenylamino)benzo[b]thiophen-2-yl)pyrimidin-2-amine]	< 5.30	< 5.30
CCCc1ccc(C(=O)NCc2ccc3sc(-c4ccnc(N)n4)c(C)c3c2)cc1 [Example 171, CCCc1ccc(cc1)C(═O)NCc2ccc3sc(c(C)c3c2)-c4ccnc(N)n4]	< 5.30	< 5.30
Cc1c(-c2ccnc(N)n2)sc2ccc(-c3ccccc3)cc12 [Example 88, 4-(3-Methyl-5-phenylbenzo[b]thiophen-2-yl)pyrimidin-2-amine]	> 5.30	< 5.30
Cc1c(-c2ccnc(N)n2)sc2ccc(C(=O)N3CCC(N)C3)cc12 (stereo not shown) [Example 23, (2-(2-Aminopyrimidin-4-yl)-3-methylbenzo[b]thiophen-5-yl)(3-aminopyrrolidin-1-yl)methanone]	> 5.30	> 5.30
Cc1c(-c2ccnc(N)n2)sc2ccc(CNC(=O)c3ccccc3C=O)cc12 [Example 129, Cc1c(sc2ccc(CNC(═O)c3ccccc3C═O)cc12)-c4ccnc(N)n4]	> 5.30	> 5.30
CNc1nccc(Nc2ccc3sc(-c4ccnc(N)n4)c(C)c3c2)n1 [Example 76, N^4-(2-(2-Aminopyrimidin-4-yl)-3-methylbenzo[b]thiophen-5-yl)-N^2-methyl pyrimidine-2,4-diamine]	> 5.30	> 5.30
Cc1c(-c2ccnc(N)n2)sc2ccc(Nc3ccc4c(c3)OCO4)cc12 [Example 70, 4-(5-(Benzo[d][1,3]dioxol-5-ylamino)-3-methylbenzo[b]thiophen-2-yl)pyrimidin-2-amine]	> 5.30	> 5.30
COc1cncc(Nc2ccc3sc(-c4ccnc(N)n4)c(C)c3c2)c1 [Example 67, 4-(5-(5-Methoxypyridin-3-ylamino)-3-methylbenzo[b]thiophen-2-yl)pyrimidin-2-amine]	> 5.30	> 5.30
Cc1c(-c2ccnc(N)n2)sc2ccc(CNC(=O)C(C)O)cc12 (stereo not shown) [Example 98, C[C](O)C(═O)NCc1ccc2sc(c(C)c2c1)-c3ccnc(N)n3]	< 5.30	> 5.30
Cc1c(-c2ccnc(N)n2)sc2ccc(Cc3cccc(C(F)(F)F)c3)cc12 [Example 39, 4-(3-Methyl-5-(3-(trifluoromethyl)benzyl)benzo[b]thiophen-2-yl)pyrimidin-2-amine]	< 5.30	< 5.30
Cc1c(-c2ccnc(N)n2)sc2ccc(Nc3ccncc3)cc12 [Example 66, 4-(3-Methyl-5-(pyridin-4-ylamino)benzo[b]thiophen-2-yl)pyrimidin-2-amine]	> 5.30	> 5.30
